Results as given in patent publication US10617680B2 (CELGENE QUANTICEL RESEARCH, INC., priority 2017, dated 2020).

Molecular target: CBP (Homo sapiens (Human), UniProt Q92793)
Assay: In vitro CBP inhibition (AlphaScreen, biotinylated H4-tetraacetyl peptide)
Type: binding
Conditions: AlphaScreen, Table 29; read-out: CBP IC50
Protocol: The CBP-inhibitory activity of the compounds described herein was determined by calculating the IC50. More specifically, CBP inhibitor activity was assayed as follows: CBP was cloned and expressed in E. coli as His-tag protein and purified by Nickel affinity and gel-filtration chromatography. […] CBP binding and inhibition is assessed by monitoring the interaction of biotinylated H4-tetraacetyl peptide (AnaSpec, H4K5/8/12/16(Ac), biotin-labeled) with the target using the AlphaScreen technology (Perkin Elmer). In a 384-well ProxiPlate CBP (50 nM final) was combined with peptide (20 nM final) in 50 mM HEPES (pH 7.3), 10 mM NaCl, 0.25 mM TCEP, 0.1% (w/v) BSA, and 0.005% (w/v) Brij-35 either in the presence of DMSO (final 0.4% DMSO) or compound dilution series in DMSO. After 20 min incubation at room temp, Alpha-streptavidin donor beads and Nickel Chelate acceptor beads were added to a final concentration of 5 μg/mL.
The ability of the compounds disclosed herein to inhibit CBP activity was quantified and the respective IC50 value determined.

Sequence of CBP (Q92793 1081-1197): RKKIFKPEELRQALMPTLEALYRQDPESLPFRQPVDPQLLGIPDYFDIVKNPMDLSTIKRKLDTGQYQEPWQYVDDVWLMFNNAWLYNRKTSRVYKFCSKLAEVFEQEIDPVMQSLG

Structure (SMILES) | IC50
C[C@@H](c1ccccc1)n1cc(-c2cn(C)c(=O)cc2N2CCCC2)cn1 [Example 47, (S)-1-methyl-5-(1-(1-phenylethyl)-1H-pyrazol-4-yl)-4-(pyrrolidin-1-yl)pyridin-2(1H)-one] | < 500 nM
CC(C)COc1cc(=O)n(C)cc1-c1cnn(C(C)c2ccccc2)c1 (centres unmarked) [Example 48, 4-isobutoxy-1-methyl-5-(1-(1-phenylethyl)-1H-pyrazol-4-yl) pyridin-2(1H)-one] | < 500 nM
CC(c1ccccc1)n1cc(-c2cn(C)c(=O)cc2OC2CCC2)cn1 (centres unmarked) [Example 49, 4-cyclobutoxy-1-methyl-5-(1-(1-phenylethyl)-1H-pyrazol-4-yl) pyridin-2(1H)-one] | < 500 nM
CC(c1ccccc1)n1cc(-c2cn(C)c(=O)cc2-n2cccn2)cn1 (centres unmarked) [Example 53, 1-methyl-5-(1-(1-phenylethyl)-1H-pyrazol-4-yl)-4-(1H-pyrazol-1-yl) pyridin-2(1H)-one] | < 500 nM
CC(c1ccccc1)n1cc(-c2cn(C)c(=O)cc2Oc2ccccc2)cn1 (centres unmarked) [Example 57, 1-methyl-4-phenoxy-5-(1-(1-phenylethyl)-1H-pyrazol-4-yl) pyridin-2(1H)-one] | 500 to 5000 nM
COC1CN(c2cc(=O)n(C)cc2-c2cnn(C(C)c3ccccc3)c2)C1 (centres unmarked) [Example 58, 4-(3-methoxyazetidin-1-yl)-1-methyl-5-(1-(1-phenylethyl)-1H-pyrazol-4-yl)pyridin-2(1H)-one] | 500 to 5000 nM
C[C@@H](c1ccccc1)n1cc(-c2cn(C)c(=O)cc2-n2cccn2)cn1 [Example 60, (S)-1-methyl-5-(1-(1-phenylethyl)-1H-pyrazol-4-yl)-4-(1H-pyrazol-1-yl)pyridin-2(1H)-one] | < 500 nM
C[C@H](c1ccccc1)n1cc(-c2cn(C)c(=O)cc2-n2cccn2)cn1 [Example 61, (R)-1-methyl-5-(1-(1-phenylethyl)-1H-pyrazol-4-yl)-4-(1H-pyrazol-1-yl)pyridin-2(1H)-one] | < 500 nM
Cn1cc(-c2cnn(Cc3ccccc3)c2)c(-n2cccn2)cc1=O [Example 66, 5-(1-benzyl-1H-pyrazol-4-yl)-1-methyl-4-(1H-pyrazol-1-yl) pyridin-2(1H)-one] | 500 to 5000 nM
Cn1cc(-c2cnn(Cc3ccccc3)c2)c(N2CCOCC2)cc1=O [Example 67, 5-(1-benzyl-1H-pyrazol-4-yl)-1-methyl-4-morpholino-pyridin-2(1H)-one] | < 500 nM
Cn1cc(-c2cnn(Cc3ccccc3)c2)c(-n2cccc2)cc1=O [Example 68, 5-(1-benzyl-1H-pyrazol-4-yl)-1-methyl-4-(1H-pyrrol-1-yl) pyridi-2(1H)-one] | < 500 nM
CCOc1cc(=O)n(C)cc1-c1cn[nH]c1 [Example 69, 4-ethoxy-1-methyl-5-(1H-pyrazol-4-yl)pyridin-2(1H)-one] | < 500 nM
CC(=O)N[C@@H]1CCN(c2cc(=O)n(C)cc2-c2cnn(Cc3ccccc3)c2)C1 [Example 72, (R)-N-(1-(5-(1-benzyl-1H-pyrazol-4-yl)-1-methyl-2-oxo-1,2-dihydropyridin-4-yl)pyrrolidin-3-yl)acctamide] | 500 to 5000 nM
CC(=O)N[C@H]1CCN(c2cc(=O)n(C)cc2-c2cnn(Cc3ccccc3)c2)C1 [Example 73, (S)-N-(1-(5-(1-benzyl-1H-pyrazol-4-yl)-1-methyl-2-oxo-1,2-dihydropyridin-4-yl)pyrrolidin-3-yl) acetamide] | 500 to 5000 nM
Cn1cc(-c2cnn(Cc3ccccc3)c2)c(N2CC[C@H](C(=O)O)C2)cc1=O [Example 75, (S)-1-(5-(1-benzyl-1H-pyrazol-4-yl)-1-methyl-2-oxo-1,2-dihydro-pyridin-4-yl)pyrrolidine-3-carboxylic acid] | < 500 nM
CNC(=O)c1ccn(-c2cc(=O)n(C)cc2-c2cnn(Cc3ccccc3)c2)c1 [Example 76] | < 500 nM
COC(=O)c1ccn(-c2cc(=O)n(C)cc2-c2cnn(Cc3ccccc3)c2)c1 [Example 77, methyl 1-(5-(1-benzyl-1H-pyrazol-4-yl)-1-methyl-2-oxo-1,2-dihydro-pyridin-4-yl)-1H-pyrrole-3-carboxylate] | < 500 nM
CN(C)C(=O)c1ccn(-c2cc(=O)n(C)cc2-c2cnn(Cc3ccccc3)c2)c1 [Example 78, 1-(5-(1-benzyl-1H-pyrazol-4-yl)-1-methyl-2-oxo-1,2-dihydropyridin-4-yl)-N,N-dimethyl-1H-pyrrole-3carboxamide] | < 500 nM
Cn1cc(-c2cnn(Cc3ccccc3)c2)c(-n2ccc(C(=O)O)c2)cc1=O [Example 79, 1-(5-(1-benzyl-1H-pyrazol-4-yl)-1-methyl-2-oxo-1,2-dihydropyridin-4-yl)-1H-pyrrole-3-carboxylic acid] | < 500 nM
Cn1cc(-c2cnn(Cc3ccccc3)c2)c(-n2ccc(C#N)c2)cc1=O [Example 80, 1-(5-(1-benzyl-1H-pyrazol-4-yl)-1-methyl-2-oxo-1,2-dihydropyridin-4-yl)-1H-pyrrole-3-carbonitrile] | < 500 nM
CCNC(=O)c1ccn(-c2cc(=O)n(C)cc2-c2cnn(Cc3ccccc3)c2)c1 [Example 81, 1-(5-(1-benzyl-1H-pyrazol-4-yl)-1-methyl-2-oxo-1,2-dihydro-pyridin-4-yl)-N-ethyl-1H-pyrrole-3-carboxamide] | < 500 nM
CC(C)NC(=O)c1ccn(-c2cc(=O)n(C)cc2-c2cnn(Cc3ccccc3)c2)c1 [Example 82, 1-(5-(1-benzyl-1H-pyrazol-4-yl)-1-methyl-2-oxo-1,2-dihydropyridin-4-yl)-N-isopropyl-1H-pyrrole-3-carboxamide] | < 500 nM
Cn1cc(-c2cn(C)c(=O)cc2-n2cccc2)cn1 [Example 83, 1-methyl-5-(1-methyl-1H-pyrazol-4-yl)-4-(1H-prrol-1-yl) pyridin-2(1H)-one] | < 500 nM
Cn1cc(-c2cn(C)c(=O)cc2-n2ccc(C(=O)O)c2)cn1 [Example 84, 1-(1-methyl-5-(1-methyl-1H-pyrazol-4-yl)-2-oxo-1,2-dihydro-pyridin-4-yl)-1H-pyrrole-3-carboxylic acid] | < 500 nM
Cn1cc(-c2cnn(Cc3ccccc3)c2)c(-n2ccc(C(N)=O)c2)cc1=O [Example 85, 1-(5-(1-benzyl-1H-pyrazol-4-yl)-1-methyl-2-oxo-1,2-dihydropyridin-4-yl)-1H-pyrrole-3-carboxamide] | < 500 nM

The next lines start with the values.

IC50 | Structure (SMILES)
< 500 nM | CC(=O)N1CC(Oc2cc(=O)n(C)cc2-c2cnn(C(C)c3ccccc3)c2)C1 (centres unmarked) [Example 50, 4-((1-acetylazetidin-3-yl)oxy)-1-methyl-5-(1-(1-phenylethyl)-1H-pyrazol-4-yl)pyridin-2(1H)-one]
< 500 nM | CC(c1ccccc1)n1cc(-c2cn(C)c(=O)cc2OC2CCCC2)cn1 (centres unmarked) [Example 51, 4-(cyclopentyloxy)-1-methyl-5-(1-(1-phenylethyl)-1H-pyrazol-4-yl) pyridin-2(1H)-one]
< 500 nM | CC(c1ccccc1)n1cc(-c2cn(C)c(=O)cc2OC2CCCCC2)cn1 (centres unmarked) [Example 52, 4-(cyclohexyloxy)-1-methyl-5-(1-(1-phenylethyl)-1H-pyrazol-4-yl) pyridin-2(1H)-one]
< 500 nM | CC1CN(c2cc(=O)n(C)cc2-c2cnn(C(C)c3ccccc3)c2)C1 (centres unmarked) [Example 54, 1-methyl-4-(3-methylazetidin-1-yl)-5-(1-(1-phenylethyl)-1H-pyrazol-4-yl)pyridin-2(1H)-one]
< 500 nM | C[C@H](c1ccccc1)n1cc(-c2cn(C)c(=O)cc2N2CCCC2)cn1 [Example 55, (R)-1-methyl-5-(1-(1-phenylethyl)-1H-pyrazol-4-yl)-4-(pyrrolidin-1-yl)pyridin-2(1H)-one]
< 500 nM | CC(c1ccccc1)n1cc(-c2cn(C)c(=O)cc2OCc2ccccc2)cn1 (centres unmarked) [Example 56, 4-(benzyloxy)-1-methyl-5-(1-(1-phenylethyl)-1H-pyrazol-4-yl) pyridin-2(1H)-one]
< 500 nM | CC(c1ccccc1)n1cc(-c2cn(C)c(=O)cc2OC2CC2)cn1 (centres unmarked) [Example 59, 4-cyclopropoxy-1-methyl-5-(1-(1-phenylethyl)-1H-pyrazol-4-yl) pyridin-2(1H)-one]
< 500 nM | CCOc1cc(=O)n(C)cc1-c1cnn(C(C)c2ccc(C)cc2)c1 (centres unmarked) [Example 62, 4-ethoxy-1-methyl-5-(1-(1-(p-tolyl)ethyl)-1H-pyrazol-4-yl) pyridin-2(1H)-one]
< 500 nM | CCOc1cc(=O)n(C)cc1-c1cnn(C(C)c2ccc(-c3ccccc3)cc2)c1 (centres unmarked) [Example 63, 5-(1-(1-([1,1′-biphenyl]-4-yl)ethyl)-1H-pyrazol-4-yl)-4-ethoxy-1-methylpyridin-2(1H)-one]
< 500 nM | CCOc1cc(=O)n(C)cc1-c1cnn(Cc2ccccc2)c1 [Example 64, 5-(1-benzyl-1H-pyrazol-4-yl)-4-ethoxy-1-methylpyridin-2(1H)-one]
< 500 nM | CCOc1cc(=O)n(C)cc1-c1cnn(Cc2ccc(C)cc2)c1 [Example 65, 4-ethoxy-1-methyl-5-(1-(4-methylbenzyl)-1H-pyrazol-4-yl) pyridin-2(1H)-one]
< 500 nM | CCOc1cc(=O)n(C)cc1-c1cnn(Cc2ccccc2C(=O)OC)c1 [Example 70, methyl 2-((4-(4-ethoxy-1-methyl-6-oxo-1,6-dihydropyridin-3-yl)-1H-pyrazol-1-yl)methyl)benzoate]
< 500 nM | CCOc1cc(=O)n(C)cc1-c1cnn(Cc2cccc(C(=O)OC)c2)c1 [Example 71, methyl 3-((4-(4-ethoxy-1-methyl-6-oxo-1,6-dihydropyridin-3-yl)-1H-pyrazol-1-yl)methyl)benzoate]
